Measured values: publication PMC4503980 (Scientific Reports, 2015)

How the values were obtained:
Format in all cases: binding
[1] = target: T1, nNOS-PDZ/PSD-95-PDZ1-2 interaction (Homo sapiens, UniProt P29475); assay: 'indirect' FP assay, Cnskr2 probe / PSD-95-PDZ1-2 / nNOS-PDZ
T1 construct: nNOS-PDZ (12–130, human); PDZ1-2 (61-249); made in house; host or cells: E. coli
From the text: (§1) First we tested a series of 23 fluorescent-labelled C-terminal peptide ligands (Supplementary Table S1) derived from PDZ-interacting proteins in order to find a probe with good activity towards the PSD-95 PDZ domains and no or little activity against nNOS-PDZ (Supplementary Fig. S1). The Cnskr2 probe fulfilled these selectivity criteria and was used to generate saturation curves with PDZ2 and PDZ1-2 of PSD-95 (Fig. 4a). […] Next, fixed concentrations of TAMRA-Cnskr2, PSD-95-PDZ2/1-2, and nNOS-PDZ were applied, corresponding to the conditions at IC50 of the nNOS-PDZ inhibition curve (Fig. 4b) where sensitivity of the assay is greatest. […] Here, we used the Sapk3-peptide as it has the desired high affinity to α1-Syntrophin-PDZ and low affinity to nNOS-PDZ (Supplementary Fig. S1).
(§2) The minor increases in mP at high concentrations, 260-2900 μM, were due to fluorescence artefacts.
(§3) Similar, this assay was established with Syntrophin-PDZ and Sapk3 as probe (Fig. 4d).
(§4) In all cases, the DMSO effect on the assay was tested and found negligible.

extended nNOS-PDZ = target: T2, extended nNOS-PDZ (Mus musculus, UniProt Q9Z0J4); assay: ITC titration into extended nNOS-PDZ; details: 100 μM protein in cell, 750 μM compound in syringe, 1% DMSO, pH 6.3, 25 °C
T2 construct: nNOS-PDZ (residues 12–134, Uniprot Q9JJ30); made in house
T2 sequence (Q9Z0J4 12-134): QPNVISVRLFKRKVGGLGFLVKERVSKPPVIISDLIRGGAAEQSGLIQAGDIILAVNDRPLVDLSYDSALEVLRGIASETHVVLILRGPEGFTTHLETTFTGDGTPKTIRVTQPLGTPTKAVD
From the text: (§5) Unlike the FP experiments above, which rely on inhibition of interaction partners, the ITC method is a direct measure of binding, regardless of where it takes place on the protein.
(§6) Figure 5 ITC curves. Plots showing titrations into PDZ domains fitted to a one-site model.
(§7) For isothermal titration calorimetry (ITC) and NMR, PSD-95-PDZ2 (157–249, human) was expressed and purified as described previously. The sequence for the extended Mus musculus nNOS-PDZ (residues 12–134, Uniprot Q9JJ30) was sub-cloned into a pETM11 vector using cloning sites Nco1 and Kpn1, and the protein was expressed and purified following a similar protocol to that used for the production of PSD-95-PDZ2.
(§8) All ITC experiments were carried out at 25 °C on an iTC200 Microcalorimeter (GE Healthcare) with a 200 μL cell capacity and 40 μL syringe volume. The buffer used for all solutions was 20 mM phosphate buffer at pH 6.3; each experiment consisted of an initial injection of 0.5 μL, followed by fifteen 2.39 μL injections before a final injection of 1.89 μL. […] In both cases no heat exchange was detected, confirming that there was appropriate match of buffer conditions with no indication of dilution effects. […] For the nNOS-PDZ/PSD-95-PDZ2 interaction, 100 μM PDZ2 in the cell was titrated with 750 μM nNOS-PDZ. […] All data was analysed using the Origin®7 software programme.

PDZ1 of PSD-95 = target: T3, PDZ1 of PSD-95 (Homo sapiens, UniProt P78352); assay: FP inhibition assay, Cy5-GluN2B probe / PDZ1; details: concentrations reaching 500–1800 μM; Cy5-GluN2B 50 nM; [PDZ1] = 10 μM (ZL006) or 18 μM (IC87201)
T3 construct: PDZ1 (61-151); made in house; host or cells: E. coli BL21-DE3 pLysS
Experimental: Fluorescent probes were made by attaching fluorophores (Cy5) to C-terminal 10- or 11-mer (C10 or C11) peptide ligands representing canonical and natural occurring protein partners (Supplementary Table S1). […] (Fig. 2).
(b) Cy5-GluN2B as probe (50 nM), [PDZ2] = 6 μM. (c) Cy5-CRIPT as probe (50 nM), [PDZ3] = 5 μM. […] Error bars indicate SEM based on three individual measurements. […]
Incubation time was 10–15 minutes (room temperature), and the assay was performed in a 1 × TBS buffer (150 mM NaCl, 10 mM Tris, pH 7.4) using black flat-bottom 384-well plates (Corning Life Sciences, NY) and a Safire2 plate-reader (Tecan, Männedorf, Switzerland). […] TAMRA- and Cy5-probes were measured at excitation/emission values of 530/585 nm (bandwidth = 20 nm) and 635/670 nm (bandwidth = 15 nm), respectively. […]
FP values were fitted to the general equation: Y = Bottom + (Top–Bottom)/[1 + (10^(X-logIC50)*HillSlope)], where X is the logarithmic value of peptide/compound concentration, and Y is the experimental FP values. Competitive inhibition constants, Ki values, were calculated from the IC50 values to quantify affinities between test substance and protein[42]. […]

PSD-95-PDZ2 = PSD-95-PDZ2 (Homo sapiens, UniProt P78352); assay: ITC titration into PSD-95-PDZ2; parameters: PSD-95-PDZ2 (157–249, human); made in house; details: 100 μM protein in cell, 750 μM compound in syringe, 1% DMSO, pH 6.3, 25 °C
From the text: as §5, §6, §7, §8

[2] = target: T4, α1-Syntrophin-PDZ/nNOS-PDZ interaction (Homo sapiens, UniProt P29475); assay: 'indirect' FP assay, Cy5-Sapk3 / α-Syntrophin-PDZ / nNOS-PDZ; details: up to 500–600 μM; Cy5-Sapk3 5 nM / α-Syntrophin-PDZ 14 μM / nNOS-PDZ 10 μM
T4 construct: nNOS-PDZ (12–130, human); α-Syntrophin-PDZ (82–200, human); made in house; host or cells: E. coli
T4 sequence (P29475 12-130): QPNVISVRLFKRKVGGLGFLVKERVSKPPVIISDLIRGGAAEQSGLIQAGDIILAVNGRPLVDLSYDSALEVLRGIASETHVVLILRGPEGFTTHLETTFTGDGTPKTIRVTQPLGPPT
From the text: as §1, §2, §3, §4

T1 sequence (P29475 12-130): as above

activity in indirect FP assay (nNOS-PDZ/PSD-95-PDZ1-2) ([1]; up to 500–600 μM, Cy5-Cnskr2 5 nM / PSD-95-PDZ1-2 1 μM / nNOS-PDZ 5 μM)	inhibition of probe-PDZ interaction (PDZ1) (PDZ1 of PSD-95)	activity in indirect FP assay (α1-Syntrophin-PDZ/nNOS-PDZ) [2]	rise in FP signal (inhibition of nNOS-PDZ/PSD-95-PDZ1-2) ([1]; ZL006 0-2900 μM, TAMRA-Cnskr2 5 nM / PSD-95-PDZ1-2 1 μM / nNOS-PDZ 2.5 μM)	Structure (SMILES)	binding to extended nNOS-PDZ by ITC (extended nNOS-PDZ)	binding to PSD-95-PDZ2 by ITC (PSD-95-PDZ2)
no activity	did not inhibit	no activity		Oc1c(Cl)cc(Cl)cc1CNc1ccc2[nH]nnc2c1 [IC87201, 2-((1H-Benzo[d][1–3]triazol-5-ylamino)methyl)-4-6-dichlorophenol]	does not bind	does not bind
	did not inhibit	no activity	no rise in FP signal	O=C(O)c1ccc(NCc2cc(Cl)cc(Cl)c2O)cc1O [ZL006, 4-((3,5-Dichloro-2-hydroxybenzyl)amino)-2-hydroxybenzoic acid]	binding was too weak to produce a binding isotherm	binding was too weak to produce a binding isotherm
